We go through 20 molecules from ChEMBL document CHEMBL1153512, “Anti-HBV and cytotoxic activities of pyranocoumarin derivatives” (Bioorg Med Chem, 2009).

A short description of test [1]: Cytotoxicity against human KBVIN cells after 3 days by sulforhodamine B assay. As to conditions: 72 h; call rule not given here. The class given is functional, cell-based. On the technique in general: Sulforhodamine B stains cellular protein and so reports cell mass.
Test [2] deals with KB. Briefly: Cytotoxicity against human KB cells after 3 days by sulforhodamine B assay. The class given is functional, cell-based. As to conditions: 72 h.
For test [3], the system named is Hepatitis B virus. In words: Antiviral activity against Hepatitis B virus infected in human […] cells assessed as suppression of viral surface antigen production after 48 hrs by enzyme immunoassay. Type of test: functional, organism-based.
The test system of test [4] is A549. Briefly: Cytotoxicity against human A549 cells after 3 days by sulforhodamine B assay. The class given is functional, cell-based. As to conditions: A549, 72 h.
In test [5] the test system is MCF7. Briefly: Cytotoxicity against human MCF7 cells after 3 days by sulforhodamine B assay. Type of test: functional, cell-based. The following applies: MCF7, 72 h.
Test [6] has as its system Hepatitis B virus. Briefly: Antiviral activity against Hepatitis B virus infected in human […] cells assessed as suppression of viral surface antigen production upto 15 uM after 48 hrs by enzyme immunoassay. The class given is functional, organism-based.

Each structure is given as a SMILES string. Values after ≈ are worked out from the molar mass of the structure shown.

For `CCC(C)(C)c1c2c(c(O)c3ccc(=O)oc13)C(=O)CC(C)(C)O2`, the EC50 in test [1] was 2.87 µg/mL (≈ 8.69 µM); in test [2], 19.5 µg/mL (≈ 59 µM); in test [3] it was 1.14 µM; in test [4], 19.7 µg/mL (≈ 59.7 µM); in test [5] it was more than 20 µg/mL.

As for `CCC(C)(C)c1cc2c(OC)c3c(c(C(C)(C)CC)c2oc1=O)OC(C)(C)CC3`, the 50% effective concentration (EC50) in test [3] stood at 6.6 µM.

Regarding `C=CC(C)(C)c1cc2c(OC)c3c(c(C(C)(C)C=C)c2oc1=O)OC(C)(C)C=C3`, the 50% effective concentration (EC50) entry in test [6] was “Not Active”.

In the case of `COc1c2c(c(C(C)(C)C3CO3)c3oc(=O)ccc13)OC(C)(C)CC2=O` (stereo not given), the EC50 entry in test [6] is listed as “Not Active”.

Consider `CCC(C)(C)c1c2c(c(OC)c3ccc(=O)oc13)CCC(C)(C)O2`, for which the EC50 in test [1] was 10.2 µg/mL (≈ 30.7 µM); in test [2], 11.5 µg/mL (≈ 34.9 µM); in test [3], 1.63 µM; in test [4] it was more than 20 µg/mL; in test [5] it was more than 20 µg/mL.

On to `CC1(C)CC(=O)c2c(c(C(C)(C)C3CO3)c3oc(=O)ccc3c2O)O1` (stereo not given), for which the EC50 result in test [6] is “Not Active”; in test [1], 2.71 µg/mL (≈ 7.87 µM); in test [2], more than 20 µg/mL; in test [4], more than 20 µg/mL; in test [5], more than 20 µg/mL.

In the case of `COc1c2c(c(C(C)(C)C3CO3)c3oc(=O)c(C(C)(C)C4CO4)cc13)OC(C)(C)C1OC21` (stereo not given), the EC50 entry in test [6] is “Not Active”.

Regarding `CCC(C)(C)c1cc2c(O)c3c(c(C(C)(C)CC)c2oc1=O)OC(C)(C)CC3`, the EC50 entry in test [6] was “Not Active”; in test [1], 7.73 µg/mL (≈ 20 µM); in test [2] it was 8.21 µg/mL (≈ 21.2 µM); in test [4] it was 12.2 µg/mL (≈ 31.6 µM); in test [5], 17.7 µg/mL (≈ 45.9 µM).

For the molecule `C=CC(C)(C)c1cc2c(OC)c3c(c(C(C)(C)C=C)c2oc1=O)OC(C)(C)C1OC31` (stereo not given), the EC50 in test [1] worked out at 6.12 µg/mL (≈ 14.9 µM); in test [2] it was 6.5 µg/mL (≈ 15.8 µM); in test [3], 4.56 µM; in test [4] it was 11.8 µg/mL (≈ 28.7 µM); in test [5] it was 11.4 µg/mL (≈ 27.8 µM).

On to `COc1c2c(cc3oc(=O)ccc13)OC(C)(C)CC2`, for which the EC50 entry in test [6] is “Not Active”.

For `COc1c2c(c(C(C)(C)C3CO3)c3oc(=O)ccc13)OC(C)(C)C1OC21` (stereo not given), the EC50 result in test [6] is recorded as “Not Active”.

Take `C=CC(C)(C)c1c2c(c(OC)c3ccc(=O)oc13)C1OC1C(C)(C)O2` (stereo not given): in test [3], the EC50 was found to be 5.5 µM.

For `C=CC(C)(C)c1c2c(c(OC)c3ccc(=O)oc13)C(=O)CC(C)(C)O2`, the EC50 in test [3] turned out to be 11.2 µM.

On to `COc1c2c(cc3oc(=O)ccc13)OC(C)(C)C1OC21` (stereo not given), for which the EC50 entry in test [6] is on record as “Not Active”.

Consider `CCC(C)(C)c1c2c(c(O)c3ccc(=O)oc13)CCC(C)(C)O2`, for which the EC50 was 9.11 µg/mL (≈ 28.8 µM) in test [1]; 9.25 µg/mL (≈ 29.2 µM) in test [2]; 1.34 µM in test [3]; 8.84 µg/mL (≈ 27.9 µM) in test [4]; 16.3 µg/mL (≈ 51.6 µM) in test [5].

For `CCC(C)(C)c1c2c(c(OC)c3ccc(=O)oc13)C(=O)CC(C)(C)O2`, the EC50 in test [1] is 13 µg/mL (≈ 37.9 µM); in test [2], more than 20 µg/mL; in test [3], 5.35 µM; in test [4], more than 20 µg/mL; in test [5] it was more than 20 µg/mL.

Take `C=CC(C)(C)c1cc2c(O)c3c(c(C(C)(C)C=C)c2oc1=O)OC(C)(C)C=C3` [CLAUSARIN]: the EC50 entry was “Not Active” in test [6]; 1.59 µg/mL (≈ 4.18 µM) in test [1]; 1.61 µg/mL (≈ 4.23 µM) in test [2]; 2.98 µg/mL (≈ 7.83 µM) in test [4]; 7.96 µg/mL (≈ 20.9 µM) in test [5].

In the case of `C=CC(C)(C)c1c2c(c(OC)c3ccc(=O)oc13)C=CC(C)(C)O2` [DENTATIN], the EC50 in test [1] is 14.7 µg/mL (≈ 45.1 µM); in test [2] it was 13.3 µg/mL (≈ 40.6 µM); in test [3], 1.64 µM; in test [4], more than 20 µg/mL; in test [5] it was more than 20 µg/mL.

Turning to `C=CC(C)(C)c1c2c(c(O)c3ccc(=O)oc13)C=CC(C)(C)O2` [NORDENTATIN], the concentration giving a half-maximal response (EC50) was 9.96 µg/mL (≈ 31.9 µM) in test [1]; 9.63 µg/mL (≈ 30.8 µM) in test [2]; 6.38 µM in test [3]; 8.7 µg/mL (≈ 27.9 µM) in test [4]; 17.3 µg/mL (≈ 55.4 µM) in test [5].

Consider `COc1c2c(cc3oc(=O)ccc13)OC(C)(C)C=C2` [XANTHOXYLETIN], for which the EC50 entry in test [6] is “Not Active”.

The EC50 is the midpoint of the concentration-response curve.
